Data published in PubChem BioAssay AID489004 (Sanford-Burnham Center for Chemical Genomics, 2010).

System: Jurkat NF-kB luciferase reporter, PMA/ionomycin, luminescence 16 h
Test: antigen receptor-induced NF-kB inhibitors, dose response, Jurkat, luciferase reporter, luminescence, B- and T-cell (AID 489004)

In the case of CC(=O)OC[C@]12CCC(C)=C[C@H]1O[C@@H]1[C@H](O)[C@@H](OC(C)=O)[C@@]2(C)[C@]12CO2, the IC50 is reported as under 160 nM.
